Values belong to the molecule of their own block, whether it stands above or below them.
System: 422866-222-R5-J1-PDC spheroid viability
Assay: Anticancer human tumor 422866-222-R5-J1-PDC patient-derived pancreatic adenocarcinoma cell line growth inhibition [CLK]
Details: spheroids with HUVEC and MSC; for IC50: curve of first compound; for viability, T/C: stronger effect = lower value
Excerpt: A high-throughput screen of multi-cell type tumor spheroids was designed to identify active combinations of […] and targeted small molecules. Complex spheroids include a stromal component modeled by human endothelial cells (HUVEC) and fibroblasts modeled by human mesenchymal stem cells (MSCs). The concentration ranges selected for each drug and investigational agent were based upon clinically achievable concentrations if the clinical Cmax of the agent was known.
Compounds. The drugs and investigational agents: cirtuvivint (SM08502; NSC835563), CC-671 (NSC850746), vemurafenib (NSC761431), tapotoclax (NSC804041), sotorasib (NSC818433), adagrasib (NSC831453), MRTX-1133 (NSC836407), BAY2416964 (NSC825713), copanlisib (NSC816437), inavolisib (NSC800729), abemaciclib (NSC768073), osimertinib (NSC779217), entinostat (NSC756642), eltanexor (KPT-8602, NSC794443), venetoclax (NSC766270), ceralasertib (NSC777638), bortezomib (NSC756655), olaparib (NSC753686), talazoparib (NSC767125), alisertib (NSC759677), peposertib (NSC802822), gemcitabine (NSC613327), 5-fluorouracil (NSC19893), SN-38 (NSC673596), oxaliplatin (NSC266046), paclitaxel (NSC125973), and doxorubicin (NSC123127), were obtained from the National Cancer Institute (NCI) Developmental Therapeutics Program Chemical Repository. The FDA-approved anticancer drug set is available from the Developmental Therapeutics Program at https://dtp.cancer.gov/organization/dscb/obtaining/available plates.htm. […] The stock solutions were prepared in dimethyl sulfoxide (DMSO, Sigma-Aldrich, St. Louis, MO, cat. D2650), except for the platinum complexes which were prepared in saline (Quality Biological, Gaithersburg, MD, cat. 114-055-101), at 800-fold the tested concentration and stored at -70 degrees C prior to their use. All drugs and investigational agents were tested over a range starting from a high concentration at or near the clinical Cmax and decreasing in half-log increments. If the clinical Cmax for an agent had not been determined, the highest concentration tested was 10 microM.
Cell Culture. All cells were maintained in an incubator at 37 degrees C and 5% CO2 with 95% humidity. The PDC lines were cultured according to standard operating procedures established by the NCI PDMR. Briefly, all PDCs were thawed and cultured in Matrigel-coated flasks prepared with a working solution of 1X Ham's F-12 nutrient mix, without supplementation (Invitrogen, Waltham, MA, cat. 11765054), 100 U/mL penicillin-streptomycin (Invitrogen, cat. 15140122), and 2.5% Matrigel (Corning Inc., Corning, NY, cat. 354248) for the first three passages. The 947758-054-R-J2-PDC line was cultured in 6B/Colon 1A media, which includes advanced DMEM/F-12 (Thermo Fisher Scientific, cat. 12634028), 10 mM HEPES (Thermo Fisher Scientific, cat. 15630080), 1X GlutaMAX supplement (Thermo Fisher Scientific, cat. 35050061), 0.1 mg/mL primocin (InvivoGen, cat. ant-pm-2), 10% defined fetal bovine serum, heat inactivated (HyClone Laboratories Inc., cat. SH30070.03HI), 1.25 mM N-Acetyl-L-cysteine (Sigma-Aldrich, cat. A9165), 10 mM nicotinamide (Sigma-Aldrich, cat. N0636), 1X B-27 supplement (Thermo Fisher Scientific, cat. 17504044), 1X N-2 supplement (Thermo Fisher Scientific, cat. 17502048), and 10 microM Y-27632 dihydrochloride (Tocris Bioscience, cat. 1254). The 876862-298-R-J1-PDC was cultured in 6E media, which includes all 6B/Colon 1A media components plus 50% L-WRN conditioned media (ATCC, cat. CRL-3276), 50 ng/mL recombinant human EGF recombinant protein (hEGF; Thermo Fisher Scientific, cat. PHG0311), 10 ng/mL recombinant human fibroblast growth factor 10 (hGFG-10; PeproTech, cat. 100-26), 1 ng/mL recombinant human fibroblast growth factor 2 (hFGF-2; PeproTech, cat. 100-18B), and 1 µM prostaglandin E2 (PGE2; Tocris, cat. 2296). The 227483-062-R1-J1-PDC line was cultured in Panc media, containing all 6E components except hFGF-2, with the addition of 500 nM SB-431542 (Selleckchem, cat. S1067) and 10 nM gastrin (Tocris, cat. 3006). […]

[1] = second compound 0.0316 µM, first compound 0.0316 µM
[2] = second compound 0.0316 µM, first compound 0.1 µM
[3] = second compound 0.0316 µM, first compound 0.316 µM
[4] = second compound 0.0316 µM, first compound 1 µM
[5] = second compound 0.0316 µM, first compound 3.16 µM
[6] = second compound 0.0316 µM, first compound 10 µM
[7] = second compound 0.1 µM, first compound 0.0316 µM
[8] = second compound 0.1 µM, first compound 0.1 µM
[9] = second compound 0.1 µM, first compound 0.316 µM
[10] = second compound 0.1 µM, first compound 1 µM
[11] = second compound 0.1 µM, first compound 3.16 µM
[12] = second compound 0.1 µM, first compound 10 µM
[13] = second compound 0.316 µM, first compound 0.0316 µM
[14] = second compound 0.316 µM, first compound 0.1 µM
[15] = second compound 0.316 µM, first compound 0.316 µM
[16] = second compound 0.316 µM, first compound 1 µM
[17] = second compound 0.316 µM, first compound 3.16 µM
[18] = second compound 0.316 µM, first compound 10 µM
[19] = second compound 1 µM, first compound 0.0316 µM
[20] = second compound 1 µM, first compound 0.1 µM
[21] = second compound 1 µM, first compound 0.316 µM
[22] = second compound 1 µM, first compound 1 µM
[23] = second compound 1 µM, first compound 3.16 µM
[24] = second compound 1 µM, first compound 10 µM
[25] = second compound 3.16 µM, first compound 0.0316 µM
[26] = second compound 3.16 µM, first compound 0.1 µM
[27] = second compound 3.16 µM, first compound 0.316 µM
[28] = second compound 3.16 µM, first compound 1 µM
[29] = second compound 3.16 µM, first compound 3.16 µM
[30] = second compound 3.16 µM, first compound 10 µM
[31] = second compound 10 µM, first compound 0.0316 µM
[32] = second compound 10 µM, first compound 0.1 µM
[33] = second compound 10 µM, first compound 0.316 µM
[34] = second compound 10 µM, first compound 1 µM
[35] = second compound 10 µM, first compound 3.16 µM
[36] = second compound 10 µM, first compound 10 µM
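Note: spheroids exposed to agents for seven days before readout.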

SMILES: COc1cccc2c1C(=O)c1c(O)c3c(c(O)c1C2=O)CC(O)(C(=O)CO)CC3OC1CC(N)C(O)C(C)O1 (centres undefined) + CN1CCN(c2cc(C(=O)Nc3cc4cc(-c5cnn(C)c5)ccc4cn3)ccn2)CC1
IC50 (second compound 0.0316 µM): 0.109 µM
IC50 (second compound 0.1 µM): 0.174 µM
IC50 (second compound 0.316 µM): 0.22 µM
IC50 (second compound 1 µM): < 0.0316 µM
IC50 (second compound 3.16 µM): < 0.0316 µM
IC50 (second compound 10 µM): < 0.0316 µM
viability, T/C [1]: 73.1%
viability, T/C [2]: 50.2%
viability, T/C [3]: 40.9%
viability, T/C [4]: 28.2%
viability, T/C [5]: 31%
viability, T/C [6]: 36%
viability, T/C [7]: 74%
viability, T/C [8]: 59.4%
viability, T/C [9]: 38.5%
viability, T/C [10]: 34.3%
viability, T/C [11]: 39.9%
viability, T/C [12]: 47.1%
viability, T/C [13]: 73%
viability, T/C [14]: 67.4%
viability, T/C [15]: 42.1%
viability, T/C [16]: 35.8%
viability, T/C [17]: 30.7%
viability, T/C [18]: 46.5%
viability, T/C [19]: 19.8%
viability, T/C [20]: 16.7%
viability, T/C [21]: 15.3%
viability, T/C [22]: 20.3%
viability, T/C [23]: 38%
viability, T/C [24]: 54.5%
viability, T/C [25]: 8.41%
viability, T/C [26]: 7.95%
viability, T/C [27]: 11.9%
viability, T/C [28]: 22.1%
viability, T/C [29]: 33.8%
viability, T/C [30]: 51%
viability, T/C [31]: 1.49%
viability, T/C [32]: 1.52%
viability, T/C [33]: 2.85%
viability, T/C [34]: 3.41%
viability, T/C [35]: 10.8%
viability, T/C [36]: 13.8%

IC50 (second compound 0.0316 µM): 2.89 µM
IC50 (second compound 0.1 µM): 2.71 µM
IC50 (second compound 0.316 µM): 0.775 µM
IC50 (second compound 1 µM): 0.617 µM
IC50 (second compound 3.16 µM): 0.548 µM
IC50 (second compound 10 µM): 1.3 µM
SMILES: COc1ccc([C@@H](O)c2cc(-c3ncnc4cc(N5CCOCC5)ccc34)c(F)cc2Cl)nn1 + CNC(=O)c1ccc(Nc2nc(OC3CCCC3)c3c(-c4ccc5nc(C)oc5c4)c[nH]c3n2)c(OC)c1
viability, T/C [1]: 113%
viability, T/C [2]: 91.6%
viability, T/C [3]: 77.5%
viability, T/C [4]: 70.2%
viability, T/C [5]: 45.1%
viability, T/C [6]: 35.2%
viability, T/C [7]: 106%
viability, T/C [8]: 81.9%
viability, T/C [9]: 84.1%
viability, T/C [10]: 62.5%
viability, T/C [11]: 45.4%
viability, T/C [12]: 34.5%
viability, T/C [13]: 69.7%
viability, T/C [14]: 63.1%
viability, T/C [15]: 73.1%
viability, T/C [16]: 44.7%
viability, T/C [17]: 44.4%
viability, T/C [18]: 32.9%
viability, T/C [19]: 63.3%
viability, T/C [20]: 58%
viability, T/C [21]: 57%
viability, T/C [22]: 45.4%
viability, T/C [23]: 38.3%
viability, T/C [24]: 37.9%
viability, T/C [25]: 54.5%
viability, T/C [26]: 66.2%
viability, T/C [27]: 43.5%
viability, T/C [28]: 47.8%
viability, T/C [29]: 45.9%
viability, T/C [30]: 37.7%
viability, T/C [31]: 48.5%
viability, T/C [32]: 63.6%
viability, T/C [33]: 56.8%
viability, T/C [34]: 44.1%
viability, T/C [35]: 48.9%
viability, T/C [36]: 36.6%

Source: PubChem BioAssay AID2060603 (Molecular Pharmacology Branch, DTP, NCI, 2025)
